# Experimental data: patent EP4101830A1, “NOVEL DIARYLIODONIUM SALT MIXTURES AS LOW MOLECULAR WEIGHT PHOTOINITIATORS WITH MINIMIZED CRYSTALLIZATION BEHAVIOR AND ELEVATED SOLUBILITY” (FEW Chemicals GmbH, priority 2021, dated 2022)
# Structures can show the parent of a compound that is named as a salt.
# How the values were obtained:
# [1] = Solubility of photoinitiator in sol-gel coating and layer (visual); type: physicochemical; settings: sol-gel coating on PET foil; result in words
# Protocol: A sol-gel coating solution consisting of 15% TEOS, 5% epoxy-modified silanes, 75% organic solvents, and 5% water was prepared according to protocols known (R.B. Figueira et al.; Journal of Coatings Technology and Research 2015, 12, 1-35). To 10 g of this coating solution were added 0.05 g of photoinitiator test compounds (see Table 5/example 7), followed by 1 hour of stirring at room temperature. This solution was applied to a PET foil at a wet thickness of 30 µm by a doctor blade device. This material was illuminated at 254 nm for 2 min or for 5 min (UV-Crosslinker device; UVP). The abrasion resistance (500 cycles) was determined with a standard method (taber-abraser) and the decrease in gloss was measured. […] TABLE 5 / Example 7
# [2] = Solubility in nonpolar solvents (MEK/dowanol 1:1); type: physicochemical; settings: measured in MEK/dowanol 1:1
# Excerpt: Thus, efficacy of photoinitiation, when given by radicals per mass, is higher for low molecular weight mixtures of the embodiment. Furthermore, the solubility in nonpolar solvents (such as ketones, ethers, esters) is improved.
SMILES,solubility in the coating and layer [1],solubility [2]
CC(C)(C)c1ccc([I+]c2ccc(C(C)(C)C)cc2)cc1.FC(F)(F)C([O][Al-]([O]C(C(F)(F)F)(C(F)(F)F)C(F)(F)F)([O]C(C(F)(F)F)(C(F)(F)F)C(F)(F)F)[O]C(C(F)(F)F)(C(F)(F)F)C(F)(F)F)(C(F)(F)F)C(F)(F)F [bis-(4-tert.-butyl-phenyl)-iodonium tetrakis(perfluoro-tert.-butoxy)aluminate],visible precipitates and spots in the coat,–
"CC(C)(C)c1ccc([I+]c2ccc(C(C)(C)C)cc2)cc1 [comparative iodonium salt 1, bis[4-(1,1-dimethylethyl)phenyl]-iodonium tetraphenylborate]",–,149 mg/mL
